Laboratory results as given in US20250257055A1, “TERTIARY AMIDE DERIVATIVES SUBSTITUTED WITH 4-MEMBERED RING STRUCTURE” (Sumitomo Pharma Co., Ltd., priority 2024, published 2025).
pIC50: −log10 of the molar value. ≈ marks a conversion by molar mass, not a printed value. Where two headings read alike, the source gives them in different places.

Assays:
[1] = Membrane permeability test (PAMPA); format: in vitro ADME
Procedure: The membrane permeability of the test compound was tested by parallel artificial membrane permeability assay (PAMPA) as follows. 200 μL of System solution (pION Inc.) containing the test compound and 4 μL of GIT Lipid-0 (pION Inc.) were added to the donor plate. 200 μL of Acceptor Sink Buffer (pION Inc.) was added to the acceptor plate. Both plates were overlapped and incubated at 37° C. for 4 hours, after which the UV of the solutions on the acceptor side and donor side was measured using a UV plate reader (190-500 nm). Compounds with poor UV absorption were measured using LC-MS. The permeability coefficient Pe (10^−6 cm/sec) of the drug was calculated using the following equation.

Kuramochi cells = assay: Cell proliferation inhibition experiment using Kuramochi cells; format: cell-based; details: 144 h, cultured for 6 days, CellTiter-Glo
Procedure: Kuramochi cells (derived from ovarian cancer) were obtained from JCRB (Japanese Collection of Research Bioresources) cell bank. Kuramochi cells were cultured in RPMI-1640 medium containing 10% fetal bovine serum and 1% penicillin/streptomycin under conditions of 37° C. and 5% CO2.
(§1) 500 cells per well were seeded in a 384-well plate. One day after seeding, Examples 3, 7, 9, 10, 11, 20, 23 to 25, and 30 to 34 were added so that the final concentration of DMSO was 0.1%, and the cells were cultured for 6 days. After the culture was completed, the cell viability was measured using CellTiter-Glo Luminescent Cell Viability Assay (Promega, G7570).

[2] = Pharmacokinetic study in mice; format: in vivo; details: for AUC / clearance / half-life / Vd / Cmax: female, BALB/c (BALB/cAnN CrlCrlj), mouse, plasma; for Vd: read-out: Vdss
Procedure: The test compound was administered to 7-week-old female BALB/c (BALB/cAnN CrlCrlj) mice intravenously (dosage: 1 mg/kg) in a 50% PEG solution (0.01 mol/L HCl) or orally (dosage: 10 mg/kg) in a 0.5% methylcellulose aqueous solution, and blood was collected at the following times:
Intravenous administration: 5 min, 15 min, 30 min, 1 hr, 2 hr, 4 hr, 6 hr, and 24 hr after administration
Oral administration: 15 min, 30 min, 1 hr, 2 hr, 4 hr, 6 hr, and 24 hr after administration
The collected blood was centrifuged at 3000 rpm×10 min using a refrigerated centrifuge set at 4° C., and the obtained plasma was measured by LC-MS. A calibration curve was prepared from the value (peak ratio) obtained by dividing the peak area of the test substance by the peak area of the internal standard substance in MS and the concentration of the plasma calibration curve sample. The concentration in the sample was calculated from the peak ratio and the calibration curve of each sample.

RMGI cells = assay: Cell proliferation inhibition experiment using RMGI cells; format: cell-based; details: Homo sapiens, RMG-I, 144 h, cultured for 6 days, CellTiter-Glo
Procedure: RMGI cells (derived from ovarian cancer) were obtained from JCRB cell bank. RMGI cells were cultured in Ham's F12 medium containing 10% fetal bovine serum and 1% penicillin/streptomycin under conditions of 37° C. and 5% CO2.
as §1, with “200” for “500”, “20, and” for “20,”, “25” for “25, and 30 to 34”

G-401 cells = assay: Cell proliferation inhibition experiment using G-401 cells; format: cell-based; details: Homo sapiens, 72 h, cultured for 3 days, CellTiter-Glo
Procedure: G-401 cells (derived from malignant rhabdoid tumor) were obtained from the American Type Culture Collection (ATCC). G-401 cells were cultured in McCoy's 5A medium containing 10% fetal bovine serum and 1% penicillin/streptomycin under conditions of 37° C. and 5% CO2.
as §1, with “1” for “3, 7, 9, 10, 11, 20, 23”, “35” for “25, and 30 to 34”, “3” for “6”

recombinant p300 = recombinant p300 (Homo sapiens (Human), UniProt Q09472); assay: HAT activity inhibition experiment (SensoLyte HAT(p300) Assay Kit); format: biochemical; details: recombinant p300, histone H3 peptide, acetyl CoA
Sequence of recombinant p300 (Q09472 whole entry): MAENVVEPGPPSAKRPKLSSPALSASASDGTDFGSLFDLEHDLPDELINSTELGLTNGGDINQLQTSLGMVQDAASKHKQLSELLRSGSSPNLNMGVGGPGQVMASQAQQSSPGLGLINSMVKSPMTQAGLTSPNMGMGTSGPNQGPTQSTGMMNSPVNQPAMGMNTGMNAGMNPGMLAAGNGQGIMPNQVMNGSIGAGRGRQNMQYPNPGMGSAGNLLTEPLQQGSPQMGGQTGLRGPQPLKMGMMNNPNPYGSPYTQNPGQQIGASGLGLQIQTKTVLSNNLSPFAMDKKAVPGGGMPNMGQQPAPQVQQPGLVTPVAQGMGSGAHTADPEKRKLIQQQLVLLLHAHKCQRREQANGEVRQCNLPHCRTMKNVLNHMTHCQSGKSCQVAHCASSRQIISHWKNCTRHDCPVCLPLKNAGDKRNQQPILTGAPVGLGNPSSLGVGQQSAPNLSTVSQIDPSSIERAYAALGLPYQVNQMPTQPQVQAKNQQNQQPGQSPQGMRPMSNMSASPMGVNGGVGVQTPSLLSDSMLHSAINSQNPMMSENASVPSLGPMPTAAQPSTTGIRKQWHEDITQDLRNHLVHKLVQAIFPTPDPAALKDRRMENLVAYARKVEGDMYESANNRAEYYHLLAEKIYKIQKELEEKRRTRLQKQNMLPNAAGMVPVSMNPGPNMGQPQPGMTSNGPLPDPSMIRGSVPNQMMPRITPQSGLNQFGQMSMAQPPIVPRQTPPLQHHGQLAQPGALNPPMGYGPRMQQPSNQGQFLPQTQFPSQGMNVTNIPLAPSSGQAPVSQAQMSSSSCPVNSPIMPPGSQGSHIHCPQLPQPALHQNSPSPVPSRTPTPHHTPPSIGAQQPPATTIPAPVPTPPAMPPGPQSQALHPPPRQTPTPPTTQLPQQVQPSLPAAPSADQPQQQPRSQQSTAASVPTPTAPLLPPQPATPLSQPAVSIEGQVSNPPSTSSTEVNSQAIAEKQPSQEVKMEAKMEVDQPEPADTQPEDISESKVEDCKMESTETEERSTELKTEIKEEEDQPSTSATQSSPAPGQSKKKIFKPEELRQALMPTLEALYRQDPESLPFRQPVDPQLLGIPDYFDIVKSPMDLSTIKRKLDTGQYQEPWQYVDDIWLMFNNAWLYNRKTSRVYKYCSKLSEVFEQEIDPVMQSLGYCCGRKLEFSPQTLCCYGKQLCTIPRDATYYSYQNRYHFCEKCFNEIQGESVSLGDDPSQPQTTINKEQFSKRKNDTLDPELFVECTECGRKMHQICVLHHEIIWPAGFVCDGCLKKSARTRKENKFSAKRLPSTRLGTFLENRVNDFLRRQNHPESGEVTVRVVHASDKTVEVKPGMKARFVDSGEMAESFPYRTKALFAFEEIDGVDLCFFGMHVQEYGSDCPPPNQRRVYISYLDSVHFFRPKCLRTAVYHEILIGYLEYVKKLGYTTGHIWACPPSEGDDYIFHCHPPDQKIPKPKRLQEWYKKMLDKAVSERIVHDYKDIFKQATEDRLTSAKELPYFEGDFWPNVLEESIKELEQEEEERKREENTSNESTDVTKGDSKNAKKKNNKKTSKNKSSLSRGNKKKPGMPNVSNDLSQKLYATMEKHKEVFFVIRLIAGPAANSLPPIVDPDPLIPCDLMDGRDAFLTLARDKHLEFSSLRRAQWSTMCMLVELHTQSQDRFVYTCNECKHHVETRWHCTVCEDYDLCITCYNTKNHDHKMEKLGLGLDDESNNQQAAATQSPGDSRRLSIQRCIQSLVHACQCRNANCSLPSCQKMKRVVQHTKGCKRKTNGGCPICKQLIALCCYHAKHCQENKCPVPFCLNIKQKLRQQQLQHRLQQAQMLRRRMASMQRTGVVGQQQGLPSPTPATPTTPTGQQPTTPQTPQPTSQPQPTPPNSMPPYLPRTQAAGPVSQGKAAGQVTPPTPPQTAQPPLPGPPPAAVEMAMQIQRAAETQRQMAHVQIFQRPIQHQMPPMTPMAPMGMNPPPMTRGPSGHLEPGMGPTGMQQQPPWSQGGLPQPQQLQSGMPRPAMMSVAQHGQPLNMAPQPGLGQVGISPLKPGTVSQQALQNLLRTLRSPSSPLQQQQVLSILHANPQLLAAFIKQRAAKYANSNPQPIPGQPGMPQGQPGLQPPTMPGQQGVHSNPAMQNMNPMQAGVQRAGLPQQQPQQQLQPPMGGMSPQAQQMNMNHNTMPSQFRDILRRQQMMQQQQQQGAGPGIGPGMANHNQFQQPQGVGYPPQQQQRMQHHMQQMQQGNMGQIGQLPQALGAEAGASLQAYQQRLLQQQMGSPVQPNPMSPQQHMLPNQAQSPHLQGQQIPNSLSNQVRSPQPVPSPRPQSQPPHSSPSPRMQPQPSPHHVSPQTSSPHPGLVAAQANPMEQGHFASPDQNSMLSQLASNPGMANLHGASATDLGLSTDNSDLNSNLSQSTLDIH
Procedure: The HAT activity inhibitory ability of HAT inhibitors was evaluated using SensoLyte HAT(p300) Assay Kit (ANASPEC, AS-72172). Specifically, 7.5 μL of the compound of Examples […] diluted with assay buffer was added to 7.5 μL of recombinant p300 solution diluted 10 times with assay buffer, and the mixture was incubated at room temperature for 10 minutes. 7.5 μL of acetyl CoA solution diluted 10 times with assay buffer and 15 μL of histone H3 peptide diluted 10 times with assay buffer were added thereto, and the mixture was incubated at 37° C. for 30 minutes. 37.5 μL of Stop Solution was added to stop the reaction. 75 μL of p300 Developer solution diluted 50 times with assay buffer was added, and the mixture was incubated at room temperature for 30 minutes under light-shielded conditions. The fluorescence at 513 nm when irradiated with 389 nm excitation light was measured using a multiplate reader.

G-401 xenograft = assay: Drug efficacy evaluation by intravenous administration using G-401 xenograft mice model; format: in vivo
Procedure: G-401 cells (ATCC) were intradermally transplanted into 4-7-week-old BALB/cAnNCrj-nu/nu mice (CAnN.Cg-Foxn1/CrlCrlj, Jackson Laboratory Japan) at 5×10^5 cells/mouse. After confirming the engraftment of G-401 cells 10-40 days after transplantation, the test compound suspended in a solvent such as 10 mmol/L glycine buffer solution (pH 2.0) was administered via the tail vein at least once a week at a dose of 0.015-20 mg/kg. The tumor volume was measured over time from the start of administration, and the effect of tumor volume reduction by administration of the test compound was evaluated. The tumor volume can be calculated from the following equation using the minor axis and major axis of the tumor measured with an electronic caliper (Mitutoyo).
A control administration group administered with only a solvent such as 10 mmol/L glycine buffer solution (pH 2.0) and a test compound administration group were compared, and the antitumor effect was evaluated by calculating T/C from the following equation.

Solubility test = format: physicochemical; details: for solubility: aqueous buffer, thermodynamic from solid
Procedure: The solubility was measured for Examples 7, 10, 20, 23, 24, and 30 to 34, Comparative Example 1, and Comparative Example 2. The test compound was added to 10 mmol/L glycine buffer (pH 2.0) and 10 mmol/L citrate buffer (pH 3.0), and the mixture was stored in a thermostatic chamber at 5° C. After standing overnight, the mixture was filtered through a membrane filter, and the concentration of the filtrate was measured by HPLC.

[3] = pH 5.0, 37° C., read-out: pH 5.0 Pe
[4] = pH 7.4, 37° C., read-out: pH 7.4 Pe
[5] = 10 mmol/L citrate buffer (pH 3.0), 5° C., overnight, read-out: Solubility in pH 3.0 buffer
[6] = 10 mmol/L glycine buffer (pH 2.0), 5° C., overnight, read-out: Solubility in pH 2.0 buffer

Compound | Papp at 4 h [1, 3] [×10⁻⁶ cm/s] | Papp at 4 h [1, 4] [×10⁻⁶ cm/s] | AUC ([2]; intravenous, 1 mg/kg) [ng·h/mL] | clearance ([2]; intravenous, 1 mg/kg) [mL/min/kg] | half-life ([2]; intravenous, 1 mg/kg) [h] | Vd ([2]; intravenous, 1 mg/kg) [L/kg] | AUC ([2]; oral, 10 mg/kg) [ng·h/mL] | Cmax ([2]; oral, 10 mg/kg) [ng/mL] | BA ([2]; oral, 10 mg/kg) [%] | pIC50 (recombinant p300) | Solubility in pH 3.0 buffer (Solubility test; 10 mmol/L citrate buffer (pH 3.0), 5° C., overnight) [mg/mL] | Solubility in pH 2.0 buffer (Solubility test; 10 mmol/L glycine buffer (pH 2.0), 5° C., overnight) [mg/mL] | solubility (Solubility test; [5]) [µg/mL] | solubility (Solubility test; [6]) [µg/mL] | solubility (in words) (Solubility test; pH 2.0 and pH 3.0 buffers) | pIC50 (Kuramochi cells) | pIC50 (RMGI cells) | pIC50 (G-401 cells) | antitumor effect (in words) (G-401 xenograft; G-401 xenograft model, intravenous administration) | T/C (G-401 xenograft; intravenous (tail vein), 0.015 mg/kg, 14 days) [%]
O=C1N[C@]2(C[C@@H](F)c3cc(-c4cnn(C5CN(C6COC6)C5)c4)ccc32)C(=O)N1CC(=O)N(Cc1ccc(F)cc1)C1(C(F)(F)F)COC1 [Example 3, 2-[(1′S,3′R)-3′-fluoro-5′-{1-[1-(oxetan-3-yl)azetidin-3-yl]-1H-pyrazol-4-yl}-2,5-dioxo-2′,3′-dihydrospiro[imidazolidine-4,1′-inden]-1-yl]-N-[(4-fluorophenyl)methyl]-N-[3-(trifluoromethyl)oxetan-3-yl]acetamide] | 14.9 | 17.7 | 764 | 20.6 | 1.8 | 2 | 3890 | 2670 | 50.9 | 9.22 | – | – | – | – | – | 7.04 | 7.74 | 7.36 | – | –
CNC(=O)Cn1cc(-c2ccc3c(c2)[C@H](F)C[C@]32NC(=O)N(CC(=O)N(Cc3ccc(F)cc3)[C@@H](C)C(F)(F)F)C2=O)cn1 [Comparative Example 1, reference compound] | 21.3 | 20.8 | – | – | – | – | – | – | – | – | 0.005 | 0.002 | 5 (≈ 8.08 µM) | 2 (≈ 3.23 µM) | extremely low solubility | – | – | – | no antitumor effect | −1.1
O=C1N[C@]2(C[C@@H](F)c3cc(-c4cnn(C5CN(C6COC6)C5)c4)ccc32)C(=O)N1CC(=O)N(Cc1ccc(F)cn1)C1(C(F)(F)F)CC(F)(F)C1 [Example 9, N-[3,3-difluoro-1-(trifluoromethyl)cyclobutyl]-2-[(1′S,3′R)-3′-fluoro-5′-{1-[1-(oxetan-3-yl)azetidin-3-yl]-1H-pyrazol-4-yl}-2,5-dioxo-2′,3′-dihydrospiro[imidazolidine-4,1′-inden]-1-yl]-N-[(5-fluoropyridin-2-yl)methyl]acetamide] | 13.3 | 15.3 | 1200 | 11.9 | 2.43 | 2 | 13100 | 5370 | 109.1 | – | – | – | – | – | – | 6.74 | 7.62 | 7.42 | – | –

The next lines start with results.

Papp at 4 h [1, 3] [×10⁻⁶ cm/s] | Papp at 4 h [1, 4] [×10⁻⁶ cm/s] | AUC ([2]; intravenous, 1 mg/kg) [ng·h/mL] | clearance ([2]; intravenous, 1 mg/kg) [mL/min/kg] | half-life ([2]; intravenous, 1 mg/kg) [h] | Vd ([2]; intravenous, 1 mg/kg) [L/kg] | AUC ([2]; oral, 10 mg/kg) [ng·h/mL] | Cmax ([2]; oral, 10 mg/kg) [ng/mL] | BA ([2]; oral, 10 mg/kg) [%] | pIC50 (recombinant p300) | Solubility in pH 3.0 buffer (Solubility test; 10 mmol/L citrate buffer (pH 3.0), 5° C., overnight) [mg/mL] | Solubility in pH 2.0 buffer (Solubility test; 10 mmol/L glycine buffer (pH 2.0), 5° C., overnight) [mg/mL] | solubility (Solubility test; [5]) [µg/mL] | solubility (Solubility test; [6]) [µg/mL] | solubility (in words) (Solubility test; pH 2.0 and pH 3.0 buffers) | Compound | pIC50 (Kuramochi cells) | pIC50 (RMGI cells) | pIC50 (G-401 cells) | antitumor effect (in words) (G-401 xenograft; G-401 xenograft model, intravenous administration) | T/C (G-401 xenograft; intravenous (tail vein), 0.015 mg/kg, 14 days) [%]
24.1 | 27.2 | 446 | 33.7 | 2.12 | 4.1 | 2500 | 1720 | 56.2 | 8.68 | – | – | – | – | – | CN1CC(N(Cc2ccc(F)cc2)C(=O)CN2C(=O)N[C@]3(C[C@@H](F)c4cc(-c5cnn(C(C)(C)C#N)c5)ccc43)C2=O)(C(F)(F)F)C1 [Example 11, 2-{(1′S,3′R)-5′-[1-(2-cyanopropan-2-yl)-1H-pyrazol-4-yl]-3′-fluoro-2,5-dioxo-2′,3′-dihydrospiro[imidazolidine-4,1′-inden]-1-yl}-N-[(4-fluorophenyl)methyl]-N-[1-methyl-3-(trifluoromethyl)azetidin-3-yl]acetamide] | 7.32 | 8.30 | 8.00 | – | –
24.4 | 34.9 | – | – | – | – | – | – | – | 9.70 | – | – | 8100 (≈ 12600 µM) | > 10000 | – | CN1CC(N(Cc2ccc(F)cn2)C(=O)CN2C(=O)N[C@]3(C[C@@H](F)c4cc(-c5cnn(C6CCC6)c5)ccc43)C2=O)(C(F)(F)F)C1 [Example 34, 2-[(1′S,3′R)-5′-(1-cyclobutyl-1H-pyrazol-4-yl)-3′-fluoro-2,5-dioxo-2′,3′-dihydrospiro[imidazolidine-4,1′-inden]-1-yl]-N-[(5-fluoropyridin-2-yl)methyl]-N-[1-methyl-3-(trifluoromethyl)azetidin-3-yl]acetamide] | 7.35 | – | 8.30 | – | –
31.3 | 34.9 | – | – | – | – | – | – | – | 9.00 | – | – | 1400 (≈ 2220 µM) | 7100 (≈ 11300 µM) | – | CC(C)n1cc(-c2ccc3c(c2)[C@H](F)C[C@]32NC(=O)N(CC(=O)N(Cc3ccc(F)cc3)C3(C(F)(F)F)CN(C)C3)C2=O)cn1 [Example 31, 2-{(1′S,3′R)-3′-fluoro-2,5-dioxo-5′-[1-(propan-2-yl)-1H-pyrazol-4-yl]-2′,3′-dihydrospiro[imidazolidine-4,1′-inden]-1-yl}-N-[(4-fluorophenyl)methyl]-N-[1-methyl-3-(trifluoromethyl)azetidin-3-yl]acetamide] | 8.10 | – | 9.00 | – | –
